# According to patent publication US8865763B2, “Methods and compositions for altering cell function” (Alltech, Inc., priority 2005, dated 2014):
# What was measured:
# Format in all cases: in vivo
# [1] = tested on: Gadd45g1p (Growth arrest and DNA-damage inducible 45 gamma interacting protein); experiment: Microarray gene expression, mouse cerebral cortex: Gadd45g1p; settings: diet 1 ppm Se, vs Se-deficient animals, * significant
# Source text: (§1) Animal Care. Male C57BL/6J mice were housed singly and started on the experimental diets described below immediately after weaning (21 days of age). The mice were maintained in the Shared Aging Rodent Facility at the William S. Middleton Memorial Veterans Administration Medical Center (Madison, Wis.). Temperature and humidity were maintained at constant levels. Room light was controlled to provide 12-hr cycles of light and dark.
# (§2) Experimental diets were created by Harlan Teklad (Madison, Wis.). Selenium content of the diets was determined by Covance Inc. (Madison, Wis.). Five (5) animals were included in each of the following treatment groups: a diet deficient in selenium (SD); a diet supplemented with selenomethionine (SM, obtained from Sigma, St. Louis, Mo.) such that the final selenium content of the diet was one (1) part per million; a diet supplemented with sodium selenite (SS, Sigma) such that the final concentration of selenium in this diet was one (1) part per million; or a diet supplemented with the yeast selenium SEL-PLEX (SP, Alltech, Lexington, Ky.), such that the final concentration of selenium in this diet was one (1) part per million. SEL-PLEX. […]
# (§3) Tissue sample preparation and microarray analysis. […] For intestinal expression studies, the intestine was flushed twice with saline solution and small intestine was measured and divided in three equal segments. […]
# [2] = tested on: Selenoprotein W (SelW); experiment: Microarray gene expression, mouse intestine: SelW; settings: diet 1 ppm Se, vs selenium deficient
# Source text: as §1, §2, §3
# [3] = tested on: Glutathione Peroxidase 3; experiment: Microarray gene expression, mouse intestine: Glutathione Peroxidase 3; settings: diet 1 ppm Se, vs selenium deficient, all p < 0.01
# Source text: as §1, §2, §3
# [4] = tested on: Amyloid beta (A4) precursor protein-binding, family A, member 1(Apba1); experiment: Microarray gene expression, mouse cerebral cortex: Apba1; settings: diet 1 ppm Se, vs Se-deficient animals, * P < 0.01
# Source text: as §1, §2, §3
# [5] = tested on: Type 1 iodothyronine deiodinase; experiment: Microarray gene expression, mouse intestine: Type 1 iodothyronine deiodinase; settings: diet 1 ppm Se, vs selenium deficient
# Source text: as §1, §2, §3
# [6] = tested on: Complement component 1, q subcomponent binding protein, C1qbp; experiment: Microarray gene expression, mouse cerebral cortex: C1qbp; settings: diet 1 ppm Se, vs selenium deficient, * p<0.01
# Source text: as §1, §2, §3
# [7] = tested on: Complement component 1, q subcomponent, alpha polypeptide, C1qa; experiment: Microarray gene expression, mouse cerebral cortex: C1qa; settings: diet 1 ppm Se, vs selenium deficient, * p<0.01
# Source text: as §1, §2, §3
# [8] = tested on: Cathepsin Z; experiment: Microarray gene expression, mouse cerebral cortex: Cathepsin Z; settings: diet 1 ppm Se, vs Se-deficient mice, * significant
# Source text: as §1, §2, §3
# [9] = tested on: Glutathione S-transferase, theta 2 (Gstt2); experiment: Microarray gene expression, mouse intestine: Gstt2; settings: diet 1 ppm Se, vs Se-deficient diets, negative = down
# Source text: as §1, §2, §3
# [10] = tested on: Cathepsin B; experiment: Microarray gene expression, mouse cerebral cortex: Cathepsin B; settings: diet 1 ppm Se, vs Se-deficient mice, * significant
# Source text: as §1, §2, §3
# [11] = tested on: Amyloid beta (A4) precursor protein-binding, family B, member 1 (Apbb1 or Fe65); experiment: Microarray gene expression, mouse cerebral cortex: Apbb1/Fe65; settings: diet 1 ppm Se, vs Se-deficient animals, * P < 0.01
# Source text: as §1, §2, §3
# [12] = tested on: Complement component 1, q subcomponent, beta polypeptide, C1qbp; experiment: Microarray gene expression, mouse cerebral cortex: C1q beta polypeptide; settings: diet 1 ppm Se, vs selenium deficient, * p<0.01
# Source text: as §1, §2, §3
# [13] = tested on: Glutathione Peroxidase 1; experiment: Microarray gene expression, mouse intestine: Glutathione Peroxidase 1; settings: diet 1 ppm Se, vs selenium deficient, all p < 0.01
# Source text: as §1, §2, §3
# [14] = tested on: Thioredoxin Reductase 1; experiment: Microarray gene expression, mouse intestine: Thioredoxin Reductase 1; settings: diet 1 ppm Se, vs selenium deficient, p <0.01
# Source text: as §1, §2, §3
smiles,measurement,setting,value
"O=[Se](O)O [Sod-sel, sodium selenite]",FC (fold change) expression of Gadd45g1p in brain,[1],−1.12 fold
same,"expression of Selenoprotein W (SelW), fold upregulated",[2],5.1 fold
same,fold change in expression of Glutathione Peroxidase 3,[3],3.5 fold
same,FC (fold change) expression of Apba1,[4],−1.41 fold
same,fold increase of expression level of Type 1 iodothyronine deiodinase,[5],2.8 fold
same,FC (fold change) expression of C1qbp,[6],1.11 fold
same,FC (fold change) expression of C1qa,[7],−1.18 fold
same,FC (fold change) expression of Cathepsin Z,[8],−1.30* fold
same,FC (fold change) expression of Gstt2,[9],−1.3 fold
same,FC (fold change) expression of Cathepsin B,[10],−1.13* fold
same,FC (fold change) expression of Apbb1 (Fe65),[11],−1.32* fold
same,"FC (fold change) expression of complement component 1, q subcomponent, beta polypeptide",[12],−1.35 fold
same,fold change in expression of Glutathione Peroxidase 1,[13],4.1 fold
same,fold increase in expression of the Thioredoxin Reductase 1 gene,[14],1.7 fold
